# Experimental data taken from patent US20190262343A1, “WOUND HEALING USING BRAF INHIBITORS” (THE REGENTS OF THE UNIVERSITY OF CALIFORNIA, priority 2016, published 2019).
# Columns and labels:
# 2.5 cm dorsal skin wound = test: Incisional dorsal wound model, wound tensile strength (WTS); format: in vivo, C3Hf/Kam (H2-k) female mice; conditions: for improvement in WTS compared to vehicle-treated controls: topical every other day, seven doses, day 14
# Excerpt: The skin wounds were surgically clipped on day 0 and mice were followed until day 14 (FIGS. 5A-5B). […] On day 14, the mice were euthanized and the skin containing the wound was removed and mounted in 20 mm strips with a horizontal wound sample in each strip.
# [1] = system: CD68+, IL-6+, COX-2+, PECAM-1+ cells; test: Immunohistochemistry of incisional wounds (CD68, IL-6, COX-2, PECAM-1); format: in vivo, mice
# Excerpt: (§1) Dorsal skin wounds from CH3 mice treated with vemurafenib suspension or DMSO in saline control suspension were excised at day 2, 6 and 14. They were fixed in 10% neutral buffered formalin and embedded in paraffin and stained with hematoxylin and eosin (H&E) using standard methods. Balb/c mice were sacrificed at day 2, 6 and 14 with isoflurane overdose. Two 8-mm round pieces of tissue were collected from each Balbc/c mouse containing the whole wound area and the surrounding tissue and skin, cut precisely in half at the midline of the wound and fixed in 1% paraformaldehyde (PFA) for 16-18 hours at 4° C., dehydrated in 70% EtOH, and then paraffin embedded. Sections were cut at 4 μm, deparaffinized with xylene and descendant ethanol, and then incubated in 3% H2O2 for 10 minutes. After a wash in distilled water, the slides were incubated for 25 minutes in citrate buffer pH6 (Invitrogen) at 95° C. using a vegetable steamer. […] The imaging and quantification of the cell-based immunohistochemistry, was performed with the HALO Next Generation Imaging analysis software (Indica Labs; Corrales, N. Mex.). […] The number of pERK+, Ki67+ and PECAM-1+ cells was automatically counted with the HALO software. Three 20× fields of view from each side of the wound were automatically counted for pERK and Ki67 stains. PECAM-1+ and CD68+ cells were automatically counted on each side of the wound edges where the granulation tissue starts (1 mm length each side) on the excisional wound splinting model, and in the entire wound area on the incisional wound model.
# To elaborate on the activated pathways associated with the increased presence of wound healing cell subsets at this time point, the genes up-expressed in the vemurafenib-treated wounds were analyzed for enriched GO biological processes 2 fold increase) using ClueGo (Bindea, G. et al., Bioinformatics 25:1091-93 (2009)). […] To confirm these findings, the levels of COX-2+ and IL-6+ cells were quantified by immunohistochemistry. […]
# dorsal skin wounds = test: Histological analysis (H&E) of incisional wounds; format: in vivo, mice
# Excerpt: Dorsal skin wounds from CH3 mice treated with vemurafenib suspension or DMSO in saline control suspension were excised at day 2, 6 and 14. They were fixed in 10% neutral buffered formalin and embedded in paraffin and stained with hematoxylin and eosin (H&E) using standard methods. Balb/c mice were sacrificed at day 2, 6 and 14 with isoflurane overdose. Two 8-mm round pieces of tissue were collected from each Balbc/c mouse containing the whole wound area and the surrounding tissue and skin, cut precisely in half at the midline of the wound and fixed in 1% paraformaldehyde (PFA) for 16-18 hours at 4° C., dehydrated in 70% EtOH, and then paraffin embedded. Sections were cut at 4 μm, deparaffinized with xylene and descendant ethanol, and then incubated in 3% H2O2 for 10 minutes. After a wash in distilled water, the slides were incubated for 25 minutes in citrate buffer pH6 (Invitrogen) at 95° C. using a vegetable steamer. The slides were brought to room temperature, rinsed in PBST (Phosphate Buffered Saline containing 0.05% Tween-20), and then incubated at room temperature with 1:100 anti-mouse Ki-67 antibody (DAKO, Carpinteria, Calif.) for 1 hour and 1:10 phospho-ERK Ab (Cell Signaling), overnight. The Ki67 stained slides were rinsed with PBST and incubated at room temperature with 1:200 polyclonal Rabbit anti-rat immunoglobulin/Biotinylated Ab (Dako, E0468) for 30 minutes. All the slides were rinsed with PBST, and incubated with Dako EnVision+ System-HRP Labelled Polymer Anti-Rabbit (Dako) at room temperature for 30 minutes. After a rinse with PBST, the slides were incubated with DAB (3,3′-Diaminobenzidine) for visualization. Subsequently, the slides were washed in tap water, counterstained with Harris' Hematoxylin, dehydrated in ethanol, and mounted with media. The imaging and quantification of the cell-based immunohistochemistry, was performed with the HALO Next Generation Imaging analysis software (Indica Labs; Corrales, N. Mex.). HALO measures and reports individual cell data maintaining an interactive link between cell metrics and cell imagery. The number of pERK+, Ki67+ and PECAM-1+ cells was automatically counted with the HALO software. Three 20× fields of view from each side of the wound were automatically counted for pERK and Ki67 stains. PECAM-1+ and CD68+ cells were automatically counted on each side of the wound edges where the granulation tissue starts (1 mm length each side) on the excisional wound splinting model, and in the entire wound area on the incisional wound model.
# The area of the wounds and their surroundings were analyzed histologically by two pathologists blinded to the study groups.
# The area of the wounds and their surroundings were analyzed histologically by H&E staining by two pathologists and the extent of epidermal hyperplasia on both sides of the healing wounds was measured on days 1, 2 and 6 post-treatment (FIGS. 6A and 6B).
# [2] = system: Human epidermal adult keratinocytes (HEKa); test: Scratch assay of keratinocyte monolayer (cell proliferation and migration, automated microscope); format: cell-based; conditions: 1.5 μM vemurafenib vs no vemurafenib, evident at 6, 8 and 12 hours
# Description: Human epidermal adult keratinocytes (HEKa) were purchased from Invitrogen (Grand Island, N.Y.; C-005-5C). HEKa cells (25,000/well) were plated on 96-well ImageLock cell migration plates (Essen Bioscience, Ann Arbor, Mich.) and incubated overnight. Then, the cell monolayer was scratched with a 96-pin WoundMaker (Essen Bioscience), and the cells washed with PBS prior to adding cell medium. Cells were maintained in culture with a concentration of 1.5 μM of vemurafenib until complete scratch closure. Cell migration was monitored by a microscope gantry inside a cell incubator, which was connected to a networker external controller hard drive that gathered and processed image data (Incucyte, Essen Bioscience, Ann Arbor, Mich.). This allows an automated and non-invasive method of monitoring live cells in culture. […]
# Human epithelial adult keratinocytes (HEKa) cultured as a monolayer in 96-well plates were subject to a scratch assay, where proliferating keratinocytes should regrow and cover the scratch. Replicate cultures with or without the BRAF inhibitor vemurafenib were placed in an incubator with an automated microscope analyzer and the number of nucleated cells in the original scratch was recorded over time. […]
# PECAM-1+ cells = test: Immunohistochemistry of excisional wounds (PECAM-1); format: in vivo, mice; conditions: excisional wound model, day 6; p=0.006
# Excerpt: as §1, with “minutes.” for “minutes. After a wash in distilled water, the slides were incubated for 25 minutes in citrate buffer pH6 (Invitrogen) at 95° C. using a vegetable steamer.”, “model. […]” for “model.”
smiles,measurement,setting,value
CCCS(=O)(=O)Nc1ccc(F)c(C(=O)c2c[nH]c3ncc(-c4ccc(Cl)cc4)cc23)c1F [vemurafenib],improvement in WTS compared to vehicle-treated controls,2.5 cm dorsal skin wound; Experiment #1,52%
same,improvement in WTS compared to vehicle-treated controls,2.5 cm dorsal skin wound; Experiment #2,33%
same,improvement in WTS compared to vehicle-treated controls,2.5 cm dorsal skin wound; Experiment #3,42%
same,improvement in WTS vs. vehicle control,"2.5 cm dorsal skin wound; separate assay, Experiment #4, p=0.01",37%
same,macrophages (CD68+ cells) in wounds by IHC,"[1]; day 6, topical",increase in macrophages
same,increase of PECAM-1+ cells,"[1]; incisional wound model, p=0.02",65%
same,IL-6+ and COX-2+ cells,"[1]; proliferation stage, day 6",higher IL-6+ and COX-2+ cells
same,wound-adjacent / peri-lesional epidermal hyperplasia (FIG. 6A),dorsal skin wounds; 2 days post-incision,more extensive
same,surface integrity,dorsal skin wounds; by day 6,surface integrity was re-established
same,wounds completely re-epithelialized,"dorsal skin wounds; by day 6, control wounds 79%",100%
same,distance of epidermal hyperplasia,"dorsal skin wounds; day 1 and 2, p=0.0132 and p=0.0338",epidermal hyperplasia over a greater distance
same,wound-adjacent epidermal inflammation,dorsal skin wounds; day 1 post-incision,more extensive
same,repair / re-epithelialization (FIG. 6A),dorsal skin wounds; day 6,Skin surface integrity re-established in 6 days
same,epidermal hyperplasia,"dorsal skin wounds; day 6, p=0.0012",less epidermal hyperplasia
same,healing process (FIG. 6A),"dorsal skin wounds; days 1, 2 and 6",accelerated
same,onset of re-epithelialization,dorsal skin wounds; incisional wounds,strong and rapid re-epithelialization starting at day 2
same,proliferative stage of wound healing (extent of epidermal hyperplasia),"dorsal skin wounds; incisional wounds, blinded pathologists",accelerated proliferative stage of wound healing
same,covering of the original scratch,[2],statistically significant improvement in the covering of the original scratch
same,increase in the number of PECAM-1+ cells compared to control wounds,PECAM-1+ cells,74%
